Measured values published in patent US20240425812A1, “HYPOVENTILATION PHYSICAL MODELS AND APPLICATIONS THEREOF” (The University of Hong Kong, priority 2023, published 2024).

Experiments:
HBSO neurons = assay: Multi-electrode array (MEA) analysis of dissociated day 60 HBSO neurons; format: cell-based, human; conditions: 10 μM, applied immediately before recording
Experimental: The functionality of HBSO neurons, particularly their responses to hypercapnia, is further assessed using multi-electrode array (MEA) analyses. Briefly, Day 60 HBSOs arc dissociated with Papain Dissociation System (Worthington, LK003150) following the manufacturer's protocol. In brief, the HBSOs are digested with the papain solution in 37° C. incubator for 30 min with continuous shaking at 90 r.p.m. and then triturated with P1000 pipette. The triturated HBSOs are further digested in 37° C. incubator for an additional 10 min and then filtered through 40 μm cell strainer (Corning, 352340) to remove undigested cell debris. The dissociated cells are collected by centrifuging at 300×g for 5 min at room temperature. The cells are then resuspended with DNase/ovomucoid inhibitor solution to stop the digestion. […] MEA recordings are measured at 37° C. with 5-8% CO2 in a Maestro Edge MEA System (Axion Biosystems) to detect spontaneous firing of spikes. The MEA plate is pre-equilibrated in the MEA system for at least 5 min before measurement and each treatment is recorded for 5-10 min to calculate the mean spike firing rate. […] The MEA recordings are analyzed using the Neural Module of AxIS Navigator 1.5 software and the Neural Metric Tool software (Axion Biosystems). […]

HBSOs = assay: HBSO differentiation with WNT antagonist added on days 3-6 (growth, RT-qPCR of patterning markers at day 20); format: cell-based, human
Experimental: To generate HSBOs, hPSCs are dissociated into single cell suspension by treating with 0.5 mM EDTA solution in DPBS and then Accutase as described above. 2.7×10^6 cells are seeded to a well of AggreWell800 24-well plate (STEMCELL Technologies, 34815) which contained 300 microwells per well (i.e. 9,000 cells per microwell). The cells are kept in mTeSR1 with 10 μM Y-27632 overnight in 37° C. incubator for the spheroid formation and they are marked as day 0 at this stage. At day 1, the spheroids from one well of Aggre Well800 are split into 3 wells of 6-well ultra-low-attachment plate containing Neural Induction Medium (DMEM/F12, 1% N2 supplement (v/v), 1% GlutaMAX supplement (v/v), 1% MEM-NEAA (v/v) and 1 μg ml^−1 Heparin) supplemented with BMP inhibitor LDN-193189 (1 μM) and TGF-β inhibitor SB431542 (10 μM). […]
Total RNA from HCOs and HBSOs are extracted by RNeasy Mini Kit (Qiagen) and the RNA concentrations are determined by Nanodrop 1000 Spectrophotometer (Thermo Fisher Scientific). […] Fluorescence is measured by ViiA 7 Real-Time PCR System (Thermo Fisher Scientific) at the end of each cycle. […]

In the case of NCCc1c[nH]c2ccc(O)cc12 [5-HT, serotonin], the “firing of HBSO neurons” value (HBSO neurons; FIG. 1J) is reported as “capable of enhancing the firing”.

With O=C(Nc1cccc2cccnc12)c1ccc(N2C(=O)[C@@H]3[C@H](C2=O)[C@@H]2C=C[C@H]3C2)cc1 [IWR1-endo] the “favoring the dB2 domain formation (PHOX2B expression)” value (HBSOs; 1 μM or 10 μM, day 20 RT-qPCR, FIG. 1D) was “does not provide additional benefits” and the “growth of the HBSOs” value (HBSOs; 10 μM) was “inhibited the growth”.

CC1CCN(CC[C@H]2CCCN2S(=O)(=O)c2cccc(O)c2)CC1 [SB269970] was tested, and the “hypercapnia responses of HBSO neurons” value (HBSO neurons; FIG. 1K) was “counteraction of these responses”.
